Data reported in US20240025906A1 (NEURON23, INC., priority 2022, published 2024).

How the values were obtained:
[1] = test system: JAK1/TYK2 pSTAT5 (Tyr694/699) in THP-1 cell line; experiment: IFNa-stimulated JAK1/TYK2 pSTAT5 (Tyr694/699) inhibition cellular assay, AlphaLISA; type: cell-based; conditions: Homo sapiens; THP-1 cells, IFNa-stimulated, AlphaLISA (Assay B); read-out: Cellular_THP1_IFNa-pSTATS_TYK2
How it was run: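 pSTAT5 (Tyr694/699) in lysates quantified by AlphaLISA (615 nm) after 30 min IFNa stimulation (100 ng/mL stock) of THP-1 cells. The cells, 2e4 per well in HBSS, had first been exposed 1 h at 37° C. to eight 6-fold compound dilutions, 10000 down to 0.04 nM final. IC50 fitted by 4PL regression, bottom 0, Hill slope −1.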

TYK2 JH2 = target: T1, TYK2 JH2 (Homo sapiens, UniProt P29597); experiment: TYK2 JH2 binding assay (KINOMEscan KdELECT competitive binding); conditions: TYK2 JH2 domain, DiscoverX KINOMEscan KdELECT (Assay A); read-out: Biochemical TYK2_DiscoverX_JH2_BND_Kd
T1 construct: purchased DiscoverX (KINOMEscan KdELECT service); host or cells: E. coli BL21-derived (T7 phage display) or HEK-293
How it was run: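 Kd values come from qPCR measurement of kinase retained on an immobilized-ligand resin after 1 h room-temperature competition with compound in an 11-point, 3-fold series.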

T1 sequence (P29597 589-875 limits assumed): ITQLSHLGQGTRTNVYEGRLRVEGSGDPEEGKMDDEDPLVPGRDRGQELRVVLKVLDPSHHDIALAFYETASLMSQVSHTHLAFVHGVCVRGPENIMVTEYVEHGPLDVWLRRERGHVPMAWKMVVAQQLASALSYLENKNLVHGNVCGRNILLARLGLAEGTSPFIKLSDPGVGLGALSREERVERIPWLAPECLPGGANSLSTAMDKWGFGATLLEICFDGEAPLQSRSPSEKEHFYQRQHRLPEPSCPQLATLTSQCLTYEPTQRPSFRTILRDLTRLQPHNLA

Compound	IC50 [1] [nM]	Kd (TYK2 JH2) [nM]
CNc1ncc(-c2nc3c(F)cc(C)cn3n2)c2cc(NC(=O)C3CC3)ncc12 [Example 505, N-(5-(8-fluoro-6-methyl-[1,2,4]triazolo[1,5-a]pyridin-2-yl)-8-(methylamino)-2,7-naphthyridin-3-yl)cyclopropanecarboxamide]	≤ 500	≤ 100
CCO/C=C\c1cccc2nc(-c3cnc(NC)c4cnc(NC(=O)C5CC5)cc34)nn12 [Example 506, (Z)—N-(5-(5-(2-ethoxyvinyl)-[1,2,4]triazolo[1,5-a]pyridin-2-yl)-8-(methylamino)-2,7-naphthyridin-3-yl)cyclopropanecarboxamide]	≤ 500	≤ 100
CCOCCc1cccc2nc(-c3cnc(NC)c4cnc(NC(=O)C5CC5)cc34)nn12 [Example 507, N-(5-(5-(2-ethoxyethyl)-[1,2,4]triazolo[1,5-a]pyridin-2-yl)-8-(methylamino)-2,7-naphthyridin-3-yl)cyclopropanecarboxamide]	≤ 500	≤ 100
CNc1ncc(-c2nc3ccc(N4CCO[C@@H](C)C4)c(F)n3n2)c2cc(NC(=O)C3CC3)ncc12 [Example 508, (S)—N-(5-(5-fluoro-6-(2-methylmorpholino)-[1,2,4]triazolo[1,5-a]pyridin-2-yl)-8-(methylamino)-2,7-naphthyridin-3-yl)cyclopropanecarboxamide]	≤ 500	≤ 100
CNc1ncc(-c2nc3ccc(N4CCO[C@@H](C)C4)c(Cl)n3n2)c2cc(NC(=O)C3CC3)ncc12 [Example 509, (S)—N-(5-(5-chloro-6-(2-methylmorpholino)-[1,2,4]triazolo[1,5-a]pyridin-2-yl)-8-(methylamino)-2,7-naphthyridin-3-yl)cyclopropanecarboxamide]	≤ 500	≤ 100
CNc1ncc(-c2nc3ccc(OCCS(C)(=O)=O)cn3n2)c2cc(NC(=O)C3CC3)ncc12 [Example 510, N-(8-(methylamino)-5-(6-(2-(methylsulfonyl)ethoxy)-[1,2,4]triazolo[1,5-a]pyridin-2-yl)-2,7-naphthyridin-3-yl)cyclopropanecarboxamide]	≤ 500	≤ 100
[2H]C([2H])([2H])Nc1ncc(-c2nc3ccc(OC)cn3n2)c2cc(NC(=O)C3CC3)ncc12 [Example 511, N-(5-(6-methoxy-[1,2,4]triazolo[1,5-a]pyridin-2-yl)-8-((methyl-d3)amino)-2,7-naphthyridin-3-yl)cyclopropanecarboxamide]	≤ 500	≤ 100
[2H]C([2H])([2H])Nc1ncc(-c2nc3ccc(N4CCO[C@H](C)C4)cn3n2)c2cc(NC(=O)C3CC3)ncc12 [Example 512, (R)-N-(8-((methyl-d3)amino)-5-(6-(2-methylmorpholino)-[1,2,4]triazolo[1,5-a]pyridin-2-yl)-2,7-naphthyridin-3-yl)cyclopropanecarboxamide]	≤ 500	≤ 100
[2H]C([2H])([2H])Nc1ncc(-c2nc3ccc(N4CCC(F)(F)CC4)cn3n2)c2cc(NC(=O)C3CC3)ncc12 [Example 513, N-(5-(6-(4,4-difluoropiperidin-1-yl)-[1,2,4]triazolo[1,5-a]pyridin-2-yl)-8-((methyl-d3)amino)-2,7-naphthyridin-3-yl)cyclopropanecarboxamide]	≤ 500	≤ 100
CCNc1ncc(-c2nc3ccc(N4CCOCC4)cn3n2)c2cc(NC(=O)C3CC3)ncc12 [Example 514, N-(8-(ethylamino)-5-(6-morpholino-[1,2,4]triazolo[1,5-a]pyridin-2-yl)-2,7-naphthyridin-3-yl)cyclopropanecarboxamide]	≤ 500	≤ 100
CCNc1ncc(-c2nc3ccc(N4CCO[C@@H](C)C4)cn3n2)c2cc(NC(=O)C3CC3)ncc12 [Example 515, (S)-N-(8-(ethylamino)-5-(6-(2-methylmorpholino)-[1,2,4]triazolo[1,5-a]pyridin-2-yl)-2,7-naphthyridin-3-yl)cyclopropanecarboxamide]	≤ 500	≤ 100
CCNc1ncc(-c2nc3ccc(OC)cn3n2)c2cc(NC(=O)C3CC3)ncc12 [Example 516, N-(8-(ethylamino)-5-(6-methoxy-[1,2,4]triazolo[1,5-a]pyridin-2-yl)-2,7-naphthyridin-3-yl)cyclopropanecarboxamide]	≤ 500	≤ 100
CCNc1ncc(-c2nc3ccc(C)cn3n2)c2cc(NC(=O)C3CC3)ncc12 [Example 517, N-(8-(ethylamino)-5-(6-methyl-[1,2,4]triazolo[1,5-a]pyridin-2-yl)-2,7-naphthyridin-3-yl)cyclopropanecarboxamide]	≤ 500	≤ 100
O=C(Nc1cc2c(-c3nc4ccc(N5CCOCC5)cn4n3)cnc(NC3CC3)c2cn1)C1CC1 [Example 518, N-(8-(cyclopropylamino)-5-(6-morpholino-[1,2,4]triazolo[1,5-a]pyridin-2-yl)-2,7-naphthyridin-3-yl)cyclopropanecarboxamide]	≤ 500	≤ 100
O=C(Nc1cc2c(-c3nc4ccccn4n3)cnc(NC3CC3)c2cn1)C1CC1 [Example 519, N-(5-([1,2,4]triazolo[1,5-a]pyridin-2-yl)-8-(cyclopropylamino)-2,7-naphthyridin-3-yl)cyclopropanecarboxamide]	> 500	≤ 100
CNc1ncc(-c2nc3ccc(OC)cn3n2)c2cc(NC(=O)[C@H]3C[C@H]3C)ncc12 [Example 520, (1S,2R)—N-(5-(6-methoxy-[1,2,4]triazolo[1,5-a]pyridin-2-yl)-8-(methylamino)-2,7-naphthyridin-3-yl)-2-methylcyclopropane-1-carboxamide]	≤ 500	≤ 100
CNc1ncc(-c2nc3ccc(OC)cn3n2)c2cc(Nc3ccccn3)ncc12 [Example 523, 4-(6-methoxy-[1,2,4]triazolo[1,5-a]pyridin-2-yl)-N^1-methyl-N^6-(pyridin-2-yl)-2,7-naphthyridine-1,6-diamine]	≤ 500	≤ 100
CNc1ncc(-c2nc3ccc(OC)cn3n2)c2cc(Nc3cccc(OC)n3)ncc12 [Example 524, 4-(6-methoxy-[1,2,4]triazolo[1,5-a]pyridin-2-yl)-N^6-(6-methoxypyridin-2-yl)-N^1-methyl-2,7-naphthyridine-1,6-diamine]	≤ 500	≤ 100
CNc1ncc(-c2nc3ccc(N4CCOCC4)cn3n2)c2cc(NC(=O)[C@H]3C[C@H]3C)ncc12 [Example 525, (1S,2R)-2-methyl-N-(8-(methylamino)-5-(6-morpholino-[1,2,4]triazolo[1,5-a]pyridin-2-yl)-2,7-naphthyridin-3-yl)cyclopropane-1-carboxamide]	≤ 500	≤ 100
CNc1ncc(-c2nc3ccc(N4CCOCC4)cn3n2)c2cc(NC(=O)C3(C)CC3)ncc12 [Example 526, 1-methyl-N-(8-(methylamino)-5-(6-morpholino-[1,2,4]triazolo[1,5-a]pyridin-2-yl)-2,7-naphthyridin-3-yl)cycloproapne-1-carboxamide]	≤ 500	≤ 100
CNc1ncc(-c2nc3ccc(N4CCOCC4)cn3n2)c2cc(NC(=O)C3(F)CC3)ncc12 [Example 527, 1-fluoro-N-(8-(methylamino)-5-(6-morpholino-[1,2,4]triazolo[1,5-a]pyridin-2-yl)-2,7-naphthyridin-3-yl)cyclopropane-1-carboxamide]	≤ 500	≤ 100
CNc1ncc(-c2nc3ccc(N4CCOCC4)cn3n2)c2cc(NC(=O)C3CCC3)ncc12 [Example 528, N-(8-(methylamino)-5-(6-morpholino-[1,2,4]triazolo[1,5-a]pyridin-2-yl)-2,7-naphthyridin-3-yl)cyclobutanecarboxamide]	≤ 500	≤ 100
CNc1ncc(-c2nc3ccc(N4CCOCC4)cn3n2)c2cc(NC(=O)C3(OC)CC3)ncc12 [Example 529, 1-methoxy-N-(8-(methylamino)-5-(6-morpholino-[1,2,4]triazolo[1,5-a]pyridin-2-yl)-2,7-naphthyridin-3-yl)cyclopropane-1-carboxamide]	≤ 500	≤ 100
CNc1ncc(-c2nc3ccc(N4CCOCC4)cn3n2)c2cc(NC(=O)[C@@H]3C[C@@H]3C)ncc12 [Example 530, (1R,2S)-2-methyl-N-(8-(methylamino)-5-(6-morpholino-[1,2,4]triazolo[1,5-a]pyridin-2-yl)-2,7-naphthyridin-3-yl)cycloproapne-1-carboxamide]	≤ 500	≤ 100
CNc1ncc(-c2nc3ccc(N4CCOCC4)cn3n2)c2cc(NC(=O)C3CC34CC4)ncc12 (stereo not drawn) [Example 531, N-(8-(methylamino)-5-(6-morpholino-[1,2,4]triazolo[1,5-a]pyridin-2-yl)-2,7-naphthyridin-3-yl)spiro[2.2]pentane-1-carboxamide]	≤ 500	≤ 100
CNc1ncc(-c2nc3ccc(N4CCOCC4)cn3n2)c2cc(Nc3ccccn3)ncc12 [Example 536, N^1-methyl-4-(6-morpholino-[1,2,4]triazolo[1,5-a]pyridin-2-yl)-N^6-(pyridin-2-yl)-2,7-naphthyridine-1,6-diamine]	≤ 500	≤ 100
CNc1ncc(-c2nc3ccc(N4CCOCC4)cn3n2)c2cc(Nc3ncccc3F)ncc12 [Example 537, N^6-(3-fluoropyridin-2-yl)-N^1-methyl-4-(6-morpholino-[1,2,4]triazolo[1,5-a]pyridin-2-yl)-2,7-naphthyridine-1,6-diamine]	≤ 500	≤ 100
